Laboratory results reported in ChEMBL document CHEMBL1135077, “Human glucagon receptor antagonists based on alkylidene hydrazides” (Bioorg Med Chem Lett, 2002).

Target: Glucagon receptor (Rattus norvegicus, UniProt P30082)
Sequence (P30082 whole entry): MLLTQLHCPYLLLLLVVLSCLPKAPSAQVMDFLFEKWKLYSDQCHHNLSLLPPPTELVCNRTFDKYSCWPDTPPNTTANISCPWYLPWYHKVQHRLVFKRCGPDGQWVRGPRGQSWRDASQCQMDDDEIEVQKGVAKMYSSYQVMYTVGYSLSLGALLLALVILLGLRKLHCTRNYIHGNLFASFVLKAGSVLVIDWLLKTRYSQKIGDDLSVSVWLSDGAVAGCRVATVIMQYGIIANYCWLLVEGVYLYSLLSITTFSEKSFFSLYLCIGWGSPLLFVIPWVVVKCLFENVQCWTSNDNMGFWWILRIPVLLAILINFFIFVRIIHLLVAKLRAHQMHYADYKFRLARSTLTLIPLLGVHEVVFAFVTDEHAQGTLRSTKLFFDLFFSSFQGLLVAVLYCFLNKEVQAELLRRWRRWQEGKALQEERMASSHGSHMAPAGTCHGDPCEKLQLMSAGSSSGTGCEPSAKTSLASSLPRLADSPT
Assay: In vitro inhibitory activity against rat glucagon receptor using […]-labeled glucagon
With `COc1cc(/C=N/NC(=O)c2ccc(O)c(C#N)c2)cc(OC)c1OCc1ccc(C(C)C)cc1` the IC50 was 0.001 µM.

Species: Rattus norvegicus
Assay: In vitro metabolism in rat liver microsomes was evaluated to determine diminishing of glucuronidation rate
Assay type: ADME
With `COc1cc(/C=N/NC(=O)c2ccc(O)c(C#N)c2)cc(OC)c1OCc1ccc(C(C)C)cc1` the Rate was 27 pM min-1 (mg of protein)-1.
For `COc1cc(/C=N/NC(=O)c2ccc(O)c(Cl)c2)cc(OC)c1OCc1ccc(C(C)C)cc1`, the Rate was 169 pM min-1 (mg of protein)-1.

Tested on: not listed separately
Assay: Half life period in vivo
Assay type: ADME, organism-based
`COc1cc(/C=N/NC(=O)c2ccc(O)c(C#N)c2)cc(OC)c1OCc1ccc(C(C)C)cc1` showed a half-life of 60 min.
Work on `COc1cc(/C=N/NC(=O)c2ccc(O)c(Cl)c2)cc(OC)c1OCc1ccc(C(C)C)cc1` yielded a half-life of 18 min.

Target: Glucagon receptor (Homo sapiens, UniProt P47871)
Sequence (P47871 whole entry): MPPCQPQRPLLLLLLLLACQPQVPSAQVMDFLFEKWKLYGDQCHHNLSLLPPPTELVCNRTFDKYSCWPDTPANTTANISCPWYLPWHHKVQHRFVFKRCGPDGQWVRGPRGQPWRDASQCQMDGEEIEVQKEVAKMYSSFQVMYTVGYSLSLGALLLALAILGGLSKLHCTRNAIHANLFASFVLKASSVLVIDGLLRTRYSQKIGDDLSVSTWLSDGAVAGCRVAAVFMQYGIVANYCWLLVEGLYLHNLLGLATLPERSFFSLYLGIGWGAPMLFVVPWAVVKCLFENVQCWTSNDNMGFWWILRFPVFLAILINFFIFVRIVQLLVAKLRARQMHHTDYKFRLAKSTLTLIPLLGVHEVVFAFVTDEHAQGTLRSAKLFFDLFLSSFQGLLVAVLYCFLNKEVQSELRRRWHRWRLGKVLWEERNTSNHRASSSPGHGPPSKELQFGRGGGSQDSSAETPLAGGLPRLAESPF
Assay: In vitro inhibitory activity against human glucagon receptor using […]-labeled glucagon
Compound `COc1cc(/C=N/NC(=O)c2ccc(O)c(C#N)c2)cc(OC)c1OCc1ccc(C(C)C)cc1` has an IC50 of 0.02 µM.
Work on `CC(C)c1ccc(Cn2ccc3c(/C=N/NC(=O)c4ccc(O)c(Cl)c4)cccc32)cc1` yielded an IC50 of 0.084 µM.
`CCN(CC)C(=O)COc1ccc(/C=N/NC(=O)c2ccc(O)c(Cl)c2)c2ccccc12` showed an IC50 of 0.13 µM.
Work on `COc1ccc(/C=N/NC(=O)c2ccc(O)c(Cl)c2)c2ccccc12` yielded an IC50 of 0.87 µM.
`COc1cc(/C=N/NC(=O)c2ccc(O)c([N+](=O)[O-])c2)cc(OC)c1OCc1ccc(C(C)C)cc1` gave an IC50 of 0.05 µM.
Compound `COc1cc(/C=N/NC(=O)c2ccc(O)c(O)c2)cc(OC)c1OCc1ccc(C(C)C)cc1` has an IC50 of 2.7 µM.
Work on `COc1cc(/C=N/NC(=O)c2ccc(O)c(Cl)c2Cl)cc(OC)c1OCc1ccc(C(C)C)cc1` yielded an IC50 of 0.031 µM.
`COc1cc(/C=N/NS(=O)(=O)c2ccc(O)c(Cl)c2)cc(OC)c1OCc1ccc(C(C)C)cc1` gave an IC50 of 78.3 µM.
Compound `COc1cc(/C=N/NC(=O)c2ccc(O)c(F)c2)cc(OC)c1OCc1ccc(C(C)C)cc1` has an IC50 of 0.11 µM.
Compound `COc1cc(/C=N/NC(=O)c2ccc(O)c(Cl)c2)cc(OC)c1OCc1ccc(OC(F)(F)F)cc1` has an IC50 of 0.18 µM.
Compound `COc1cc(CCNC(=N)c2ccc(O)c(Cl)c2)cc(OC)c1OCc1ccc(C(C)C)cc1` has an IC50 of 5.2 µM.
Work on `COc1cc(/C=N/NC(=O)c2ccc(O)c(Cl)c2)ccc1OCc1ccc(C(C)C)cc1` yielded an IC50 of 1.3 µM.
With `COc1cc(/C=N/NC(=O)c2ccc(O)c(N)c2)cc(OC)c1OCc1ccc(C(C)C)cc1` the IC50 was 0.94 µM.
Work on `NC(=O)COc1ccc(/C=N/NC(=O)c2ccc(O)c(Cl)c2)c2ccccc12` yielded an IC50 of 1.2 µM.
With `COc1cc(/C(C)=N/NC(=O)c2ccc(O)c(Cl)c2)cc(OC)c1OCc1ccc(C(C)C)cc1` the IC50 was greater than 100 µM.
Compound `CC(C)c1ccc(COc2ccc(/C=N/NC(=O)c3ccc(O)c(Cl)c3)cc2)cc1` has an IC50 of 1.5 µM.
Compound `Cc1cc(/C=N/NC(=O)c2ccc(O)c(Cl)c2)cc(C)c1OCc1ccc(C(C)C)cc1` has an IC50 of 0.33 µM.
`COC(=O)C(Oc1c(OC)cc(/C=N/NC(=O)c2ccc(O)c(Cl)c2)cc1OC)c1ccccc1` (configuration not stated) gave an IC50 of 0.69 µM.
For `COc1cc(/C=N/NC(=O)c2ccc(O)c(Cl)c2)cc(OC)c1OCc1ccc(F)c(F)c1`, the IC50 was 0.15 µM.
Compound `COc1cc(/C=N/NC(=O)c2ccc(O)c(F)c2F)cc(OC)c1OCc1ccc(C(C)C)cc1` has an IC50 of 0.048 µM.
`COc1cc(CCNC(=O)c2ccc(O)c(Cl)c2)cc(OC)c1OCc1ccc(C(C)C)cc1` showed an IC50 of 1.9 µM.
`CC(C)(C)c1nc(COc2ccc(/C=N/NC(=O)c3ccc(O)c(Cl)c3)c3ccccc23)no1` gave an IC50 of 0.16 µM.
With `COc1cc(CNNC(=O)c2ccc(O)c(Cl)c2)cc(OC)c1OCc1ccc(C(C)C)cc1` the IC50 was 0.88 µM.
In the case of `O=C(N/N=C/c1ccc(OCc2ccc(OC(F)(F)F)cc2)c2ccccc12)c1ccc(O)c(Cl)c1`, the IC50 is reported as 0.058 µM.
Compound `COc1cc(/C=N/NC(=O)c2ccc(O)c(Cl)c2)cc(C(=O)O)c1OCc1ccc(C(C)C)cc1` has an IC50 of 30 µM.
In the case of `CC(C)c1ccc(COc2ccc(/C=N/NC(=O)c3ccc(O)c(Cl)c3)c3ccccc23)cc1`, the IC50 is reported as 0.053 µM.
Compound `COc1cc(/C=N/NC(=O)c2ccc(O)c(Cl)c2)cc(OC)c1OCc1ccc(C(C)C)cc1` has an IC50 of 0.023 µM.
`COc1cc(/C=C/C(=O)Nc2ccc(O)c(Cl)c2)cc(OC)c1OCc1ccc(C(C)C)cc1` showed an IC50 of 6.4 µM.
`O=C(N/N=C/c1ccc(OCC2CCCCO2)c2ccccc12)c1ccc(O)c(Cl)c1` (configuration not stated) gave an IC50 of 0.14 µM.
`CC(C)c1ccc(Cn2cc(/C=N/NC(=O)c3ccc(O)c(Cl)c3)c3ccccc32)cc1` showed an IC50 of 0.39 µM.
`Cc1c(/C=N/NC(=O)c2ccc(O)c(Cl)c2)ccc(OCc2ccc(C(C)C)cc2)c1C` gave an IC50 of 0.74 µM.
In the case of `COc1cc(/C=N/NC(=O)c2ccc(O)cc2)cc(OC)c1OCc1ccc(C(C)C)cc1`, the IC50 is reported as 0.69 µM.
